Data published in patent publication US20110105393A1, “METHODS FOR PROMOTING STEM CELL PROLIFERATION AND SURVIVAL” (priority 2007, published 2011).

How the values were obtained:
Hes3+ cells = Hes3+ cells after single intra-ventricular injection; type: in vivo, rat; conditions: for number of Hes3+ cells in the adult striatum and substantia nigra: single intracerebroventricular injection, within 5 days (FIG. 11); for number of stem cells/precursors in the adult brain: summary of in vivo treatments
Method: (§1) Pharmacological treatments.
(§2) Immunohistochemistry: Under deep anesthesia, animals were perfused transcardially with a rinse of saline, followed by 4% formaldehyde fixative (pH 7.4). Brains were removed immediately, stored in the fixative solution overnight and then in 30% sucrose for 3 days. Brains were frozen-sectioned at 16 μm. Immunohistochemical detection of BrdU and Hes3 was performed with an antigen-retrieval step (sections were boiled in 0.02M citrate, pH 6.0 in a microwave for 5 min, washed 3 times with distilled water, and incubated for 45 min in 2M HCl, at room temperature).
(§3) Hes3+ cells in the central nervous system (CNS) parenchyma were characterized and the means to activate the NSC compartment in vivo was investigated. Single injections of pharmacologically active compounds were performed in the lateral ventricle, bromodeoxyuridine (BrdU) was administered intraperitoneally (days 2-4) and the animals were sacrificed on day 5. At the subventricular zone (SVZ), a single intra-ventricular injection of Dll4 induced STAT3-S727 phosphorylation and Hes3 expression within 5 days. […] BrdU+ cell numbers were elevated in all these areas (FIG. 3a).
Immunohistochemistry: Under deep anesthesia, animals were perfused transcardially with a rinse of saline, followed by 4% formaldehyde fixative (pH 7.4). Brains were removed immediately, stored in the fixative solution overnight and then in 30% sucrose for 3 days. Brains were frozen-sectioned at 16 μm. Immunohistochemical detection of BrdU and Hes3 was performed with an antigen-retrieval step (Sections were boiled in 0.02M citrate, pH 6.0 in a microwave for 5 minutes, washed 3 times with distilled water, and incubated for 45 min in 2M HCl, at room temperature).

TH+ dopaminergic neurons = experiment: Tyrosine hydroxylase immunohistochemistry in striatum and substantia nigra, 6OHDA model; type: in vivo, rat; conditions: % ipsi- vs. contra-lateral TH optical density (FIG. 13b)
Method: as §1, §2
(§4) To investigate the clinical potential of this treatment approach, the compounds were used in an animal model of Parkinson's disease. Adult rats were lesioned by intra-striatal 6-OH-DA (Przedborski, S. et al., Neuroscience 67, 631-47, 1995). After two weeks, a single injection of the compounds was administered in the lateral ventricle ipsilateral to the lesion. Amphetamine-induced rotations were measured bi-weekly throughout the experiment. Thirteen weeks after treatment they were given a single injection of fluorogold in the striatum to label the […] dopaminergic projection.
Immunohistochemistry: Under deep anesthesia, animals were perfused transcardially with a rinse of saline, followed by 4% formaldehyde fixative (pH 7.4). […]

[1] = tested on: dopamine neurons in the substantia nigra; experiment: Fluorogold retrograde labelling of dopamine neurons in the substantia nigra, 6OHDA model; type: in vivo, rat; conditions: for neuroprotective effects on neurons: summary of in vivo treatments; for cell body diameter of TH+/Fluorogold+ cells in the substantia nigra: treatment 2-weeks following 6OHDA lesion, ipsilateral (FIG. 6e)
Method: as §1, §4

6-OHDA lesioned rats = experiment: Amphetamine-induced rotometry in the 6OHDA lesion model of Parkinson's disease; type: in vivo, rat; conditions: for recovery in rotational bias: single intraventricular injection 2 weeks after lesion, measured over next 13 weeks, n=4-7 (FIG. 13a)
Method: as §1, §4

[2] = tested on: proliferating (BrdU+) cells; experiment: BrdU+ proliferating cells after single intra-ventricular injection; type: in vivo, rat; conditions: BrdU days 2-4, sacrifice day 5
Method: as §1, §2, §3

blood vessels (RECA-1) = experiment: Blood vessel number and size in striatum (RECA-1 staining) after 6OHDA lesion and treatment; conditions: for number and size of blood vessels in the striatum: 13 weeks after a single treatment, pattern recognition software; for blood vessel numbers or size (undesirable effects, summary): rat, in vivo
Method: Blood vessel counting and area quantitation: Zeiss software was used to identify, count, and measure blood vessels stained for the pan-endothelial marker RECA-1. To measure the average distance between adjacent Hes3+ cells along the same blood vessel, 25 high-power (×63) confocal z-stack images were used from brain sections stained for endothelial markers and Hes3.
6OHDA Lesion. Some animals underwent unilateral lesion of the nigrostriatal dopamine pathway by stereotactical injection of 50 μg 6-hydroxydopamine (6-OHDA) into the right striatum, using the following coordinates: bregma AP +0.5 mm, ML −3.0 mm, VD +5.5 mm.
Pharmacological treatments. Unlesioned animals, or animals two weeks after 6-OHDA lesion, were treated with different pharmacologic agents. Five microliters (μl) of different drugs were stereotactically injected into the right lateral ventricle using the following stereotaxic coordinates: bregma AP −0.9 mm, ML −1.4 mm, VD +3.8 mm. The following reagents were used: Dll4 (2 mg/ml), Ang-2 (1 mg/ml), insulin (8 mg/ml), Jak-Inhibitor (20 μM), either alone or in combination.
In vivo Experiments: Male adult (3-6 months) Sprague Dawley rats (Charles River Laboratories), weighing 250-350 gm, was used for pharmacological treatments and lesion experiments. For 6OHDA Lesion: animals underwent unilateral lesion of the nigrostriatal dopamine pathway by stereotactical injection of 50 μg 6-hydroxydopamine (6-OHDA) into the right striatum, using the following coordinates: bregma AP +0.5 mm, ML −3.0 mm, VD +5.5 mm. For pharmacological treatments: unlesioned animals, or animals two weeks after 6OHDA lesion, were treated with different pharmacologic agents. Five μl of different drugs were stereotactically injected into the right lateral ventricle using the following stereotaxic coordinates: bregma AP −0.9 mm, ML −1.4 mm, VD +3.8 mm. The following reagents were used: Dll4 (2 mg/ml), Ang2 (1 mg/ml), insulin (8 mg/ml), Jak-Inhibitor (20 μM), either alone or in combination. After all surgeries, animals were allowed to recover from the anesthesia and were put back into their home cages, where they were given access to food and water ad libitum. For labeling of dividing cells: Animals received intraperitoneal injection of the tracer bromodeoxyuridine (BrdU) (50 mg/kg) every 12 hours for 5 days beginning on day 1 post-op to label dividing cells. Amphetamine induced rotations: At multiple time points over the course of the experiment, lesioned rats were injected intra-peritoneally with D-Amphetamine sulfate (5 mg/kg) and placed in automated rotometer bowls. Rotational behavior was assessed by monitoring total number of whole body (360°) turns over 60 min.

[3] = 6OHDA lesioned, striatum, RECA-1 (FIG. 5c)

Substance	number of Hes3+ cells in the adult striatum and substantia nigra (Hes3+ cells)	number of stem cells/precursors in the adult brain (Hes3+ cells)	TH+ signal in the lesioned striatum (TH+ dopaminergic neurons)	neuroprotective effects on neurons [1]	cell body diameter of TH+/Fluorogold+ cells in the substantia nigra [1]	recovery in rotational bias (6-OHDA lesioned rats)	number of proliferating cells in the SVZ [2]	number of vessels (blood vessels (RECA-1); [3])	number and size of blood vessels in the striatum (blood vessels (RECA-1))	blood vessel numbers or size (undesirable effects, summary) (blood vessels (RECA-1))	STAT3-S727 phosphorylation and Hes3 expression at the subventricular zone (Hes3+ cells; single intra-ventricular injection, within 5 days)	numbers of Hes3+ and Tie-2+ precursor cells in the SVZ (Hes3+ cells; single ventricular injection)	amphetamine-induced rotations (behavioural recovery) (6-OHDA lesioned rats; single intra-ventricular injection 2 weeks after 6-OHDA lesion (FIG. 6a))	diameter of the vessels (blood vessels (RECA-1); [3])	effect on the vasculature (striatum, RECA-1) (blood vessels (RECA-1); 6OHDA lesioned, end of experiment (FIG. 5c))
Ang-2: human angiopoietin-2 (623-AN) from R&D; antagonist for angiopoietin-1 at Tie2	increased	increase	increase	exert neuroprotective effects	increase	complete and stable recovery	increased	significantly increased	opposing and long-lasting effects	increases the number and size of blood vessels	–	–	–	–	–
Dll4: Notch ligand Delta-like 4; mouse Dll4 (1389-D4) from R&D	increased	increase	increase	exert neuroprotective effects	–	partial recovery	increased	–	opposing and long-lasting effects	reduces the number and size of blood vessels	induced	rapidly increased	long-lasting behavioural recovery	significantly decreased	–
insulin: insulin (Sigma, 19278), growth factor	–	increase	–	exert neuroprotective effects	increase	–	increased	–	–	increases the number of blood vessels adjacent to the injection site	–	–	–	–	relatively small effect
